SMILES strings stand for the structures. Values joined by “and” are separate entries in the source; they are usually repeats but may differ in a detail not shown here. Equal values may be shown once. Numbers after ± are expanded uncertainties.

For data set [1] the following is noted: for surface tension liquid-gas: Pendant drop shape; for mass density: 101 kPa, Liquid, Vibrating tube method.
Data set [2] in a line: xn = mol fraction of the nth substance listed. The note with it: x1 = 1; for surface tension liquid-gas: Pendant drop shape; for mass density: 101 kPa, Liquid, Vibrating tube method.

Consider `Cc1ccc(C)c(C)c1` [1,2,4-trimethylbenzene], for which the surface tension liquid-gas was 29.17 ± 0.33 mN/m in data set [1] (298.15 K), 28.67 ± 0.32 mN/m in data set [1] (303.15 K), 28.17 ± 0.32 mN/m in data set [1] (308.15 K) and 27.67 ± 0.31 mN/m in data set [1] (313.15 K). The mass density in data set [1] (298.15 K) is 871.66 ± 0.19 kg/m3; in data set [1] (303.15 K), 867.61 ± 0.19 kg/m3; in data set [1] (308.15 K), 863.59 ± 0.19 kg/m3; in data set [1] (313.15 K) it was 859.54 ± 0.19 kg/m3.

`Cc1cc(C)cc(C)c1` [1,3,5-trimethylbenzene]: the surface tension liquid-gas in data set [1] (298.15 K) worked out at 28.09 ± 0.31 mN/m; in data set [1] (303.15 K), 27.67 ± 0.31 mN/m; in data set [1] (308.15 K), 27.24 ± 0.3 mN/m; in data set [1] (313.15 K) it was 26.82 ± 0.3 mN/m. Besides, the mass density was 861.04 ± 0.18 kg/m3 in data set [1] (298.15 K), 856.96 ± 0.18 kg/m3 in data set [1] (303.15 K), 852.84 ± 0.18 kg/m3 in data set [1] (308.15 K) and 848.74 ± 0.18 kg/m3 in data set [1] (313.15 K).

Consider `CCCCOC(C)=O` [butyl ethanoate], for which the surface tension liquid-gas in data set [1] (298.15 K) is given as 24.89 ± 0.27 mN/m; in data set [1] (303.15 K), 24.35 ± 0.27 mN/m; in data set [1] (308.15 K), 23.82 ± 0.27 mN/m; in data set [1] (313.15 K) it was 23.28 ± 0.26 mN/m. Also, the mass density in data set [1] (298.15 K) is recorded as 876.18 ± 0.14 kg/m3; in data set [1] (303.15 K), 871.31 ± 0.14 kg/m3; in data set [1] (308.15 K), 866.24 ± 0.14 kg/m3; in data set [1] (313.15 K), 861.57 ± 0.14 kg/m3.

Regarding `CCCCOC(C)=O` [butyl ethanoate] + Cc1cc(C)cc(C)c1, the surface tension liquid-gas in data set [2] (298.15 K) is reported as 24.89 ± 0.27 mN/m; in data set [2] (303.15 K) it was 24.35 ± 0.27 mN/m; in data set [2] (308.15 K), 23.82 ± 0.27 mN/m; in data set [2] (313.15 K), 23.28 ± 0.26 mN/m. For the same compound, the mass density worked out at 876.18 ± 0.14 kg/m3 in data set [2] (298.15 K), 871.31 ± 0.14 kg/m3 in data set [2] (303.15 K), 866.24 ± 0.14 kg/m3 in data set [2] (308.15 K) and 861.57 ± 0.14 kg/m3 in data set [2] (313.15 K).

In the case of `CCCCOC(C)=O` [butyl ethanoate] + Cc1ccc(C)c(C)c1, the surface tension liquid-gas in data set [2] (298.15 K) was found to be 24.89 ± 0.27 mN/m; in data set [2] (303.15 K) it was 24.35 ± 0.27 mN/m; in data set [2] (308.15 K), 23.82 ± 0.27 mN/m; in data set [2] (313.15 K), 23.28 ± 0.26 mN/m. For the same compound, the mass density was determined as 876.18 ± 0.14 kg/m3 in data set [2] (298.15 K), 871.31 ± 0.14 kg/m3 in data set [2] (303.15 K), 866.24 ± 0.14 kg/m3 in data set [2] (308.15 K) and 861.57 ± 0.14 kg/m3 in data set [2] (313.15 K).

For `CCCOC(C)=O` [propyl ethanoate], the surface tension liquid-gas was 23.99 ± 0.27 mN/m in data set [1] (298.15 K); 23.36 ± 0.26 mN/m and 23.35 ± 0.26 mN/m in data set [1] (303.15 K); 22.73 ± 0.26 mN/m in data set [1] (308.15 K); 22.1 ± 0.3 mN/m in data set [1] (313.15 K). Moreover, the mass density amounted to 882.64 ± 0.15 kg/m3 in data set [1] (298.15 K), 876.99 ± 0.15 kg/m3 in data set [1] (303.15 K), 871.33 ± 0.15 kg/m3 in data set [1] (308.15 K) and 865.68 ± 0.15 kg/m3 in data set [1] (313.15 K).

In the case of `CCCOC(C)=O` [propyl ethanoate] + Cc1cc(C)cc(C)c1, the surface tension liquid-gas in data set [2] (298.15 K) worked out at 23.99 ± 0.27 mN/m; in data set [2] (303.15 K), 23.35 ± 0.26 mN/m; in data set [2] (308.15 K), 22.73 ± 0.26 mN/m; in data set [2] (313.15 K), 22.1 ± 0.25 mN/m. The mass density in data set [2] (298.15 K) is 882.64 ± 0.15 kg/m3; in data set [2] (303.15 K), 876.99 ± 0.15 kg/m3; in data set [2] (308.15 K), 871.33 ± 0.15 kg/m3; in data set [2] (313.15 K), 865.68 ± 0.15 kg/m3.

With `CCCOC(C)=O` [propyl ethanoate] + Cc1ccc(C)c(C)c1, the surface tension liquid-gas in data set [2] (298.15 K) amounted to 23.99 ± 0.27 mN/m; in data set [2] (303.15 K) it was 23.36 ± 0.26 mN/m; in data set [2] (308.15 K), 22.73 ± 0.26 mN/m; in data set [2] (313.15 K), 22.1 ± 0.3 mN/m. The mass density in data set [2] (298.15 K) amounted to 882.64 ± 0.15 kg/m3; in data set [2] (303.15 K), 876.99 ± 0.15 kg/m3; in data set [2] (308.15 K), 871.33 ± 0.15 kg/m3; in data set [2] (313.15 K), 865.68 ± 0.15 kg/m3.

What is called surface tension liquid-gas is the work needed to enlarge the surface of a liquid by unit area. As a reminder, the mass density is mass per unit of volume.

Source of the values: the NIST ThermoML archive (doi:10.1016/j.jct.2006.07.025).
